Laboratory results reported in US20080070954A1, “Acylurea Connected And Sulfonylurea Connected Hydroxamates” (S*BIO PTE LTD., priority 2003, published 2008).

Key:
[1] = tested on: MDA-MB231 human breast cancer cell line; experiment: Cell-based proliferation assay for determination of GI50 values, MDA-MB231; conditions: MDA-MB231 cells, 96 h treatment, cyquant assay
Procedure: (§1) Human colon cancer cell lines (Colo205) and human breast cancer cell lines (MDA-MB435 and MDA-MB231) were obtained from ATCC. Colo205 cells were cultivated in RPMI 1640 containing 2 mM L-Glutamine, 5% FBS, 1.0 mM Na Pyruvate. MDA-MB231 cells were cultivated in RPMI 1640 containing 2 mM L-glutamine, 5% FBS. MDA-MB435 cells were cultivated in DMEM containing 2 mM L-Glutamine, 5% FBS. Colo205 cells were seeded in 96-wells plate at 5000 cells per well respectively. MDA-MB435 and MDA-MB231 cells were seeded in 96-wells plate at 6000 cells per well. The plates were incubated at 37° C., 5% CO2, for 24 h. Cells were treated with compounds at various concentrations for 96 h. Cell growth was then monitored using cyquant cell proliferation assay (Invitrogen Pte Ltd). Dose response curves were plotted to determine GI50 values for the compounds using XL-fit (ID Business Solution, Emeryville, Calif.).

[2] = tested on: acetylated histone H3 in Colo205 cells; experiment: Histone acetylation assay (western blot), histone H3; format: cell-based, human; design: key: “Active” means accumulation of acetylated histone was observed when compared with control (without compound); conditions: Colo205 cells, 0.1, 1, 5 and 10 μM, 24 h
Procedure: (§2) A hallmark of histone deacetylase (HDAC) inhibition is the increase in the acetylation level of histones. Histone acetylation, including H3, H4, H2A and H2B can be detected by immuno-blotting (western-blot). Colo205 cells, approximately 1.5×10^6 cells/10 cm dish, were seeded in the previously described medium, cultivated for 24 h and subsequently treated with HDAC inhibitory agents at 0.1, 1, 5 and 10 μM final concentration. After 24 h, cells were harvested and lysed according to the instruction from Sigma Mammalian Cell Lysis Kit. The protein concentration was quantified using BCA method (Sigma Pte Ltd). The protein lysate was separated using 4-12% bis-tris SDS-PAGE gel (Invitrogen Pte Ltd) and was transferred onto PVDF membrane (BioRad Pte Ltd). The membrane was probed separately using primary antibody specific for acetylated H3, acetylated H4 or acetylated H2A (Upstate Pte Ltd). The detection antibody, goat anti rabbit antibody conjugated with Horse radish peroxidase (HRP) was used according to the manufacturer instruction (Pierce Pte Ltd). After removing the detection antibody from the membrane, an enhanced chemiluminescent substrate for detection of HRP (Pierce Pte Ltd) was added onto the membrane. After removing the substrate, the membrane was exposed to an X-ray film (Kodak) for 1 sec-20 mins. The X-ray film was developed using the X-ray film processor. The density of each band observed on the developed film could be analysed using UVP Bioimaging software (UVP, Inc, Upland, Calif.). The values were then normalized against the density of actin in the corresponding samples to obtain the expression of the protein.

[3] = tested on: Colo205 human colon cancer cell line; experiment: Cell-based proliferation assay for determination of GI50 values, Colo205; conditions: COLO 205, Colo205 cells, 96 h treatment, cyquant assay, read-out: Colo 205 Gl50
Procedure: as §1

[4] = molecular target: T1, HDAC8 enzyme (recombinant GST-HDAC8) (Homo sapiens, UniProt Q9BY41); experiment: In vitro HDAC assay for determination of IC50 values (BIOMOL fluorescent-based), HDAC8; format: biochemical; conditions: 500 nM HDAC8 enzyme, 200 μM Flur de lys p53 peptide substrate, 2 h room temperature
T1 construct: Amplification of human HDAC1 and HDAC8 coding region from this cDNA library; made in house; host or cells: SF9 insect cells (baculovirus, pFASTBAC vector)
T1 sequence (Q9BY41 1-377): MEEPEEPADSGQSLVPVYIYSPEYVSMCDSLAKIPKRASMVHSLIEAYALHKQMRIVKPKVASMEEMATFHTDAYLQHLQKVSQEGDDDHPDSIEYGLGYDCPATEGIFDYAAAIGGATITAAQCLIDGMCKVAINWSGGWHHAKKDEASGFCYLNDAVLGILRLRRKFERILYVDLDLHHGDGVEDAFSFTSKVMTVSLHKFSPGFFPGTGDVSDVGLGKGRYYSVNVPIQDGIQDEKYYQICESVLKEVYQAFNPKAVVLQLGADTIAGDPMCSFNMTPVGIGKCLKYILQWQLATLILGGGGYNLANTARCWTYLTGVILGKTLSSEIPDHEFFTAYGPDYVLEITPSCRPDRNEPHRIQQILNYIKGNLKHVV
Procedure: Human cDNA library was prepared using cultured SW620 cells. Amplification of human HDAC1 and HDAC8 coding region from this cDNA library was cloned separately into the baculovirus expression pDEST20 vector and pFASTBAC vector respectively (GATEWAY Cloning Technology, Invitrogen Pte Ltd). […] Recombinant baculovirus was prepared using the Bac-To-Bac method following the manufacturer's instruction (Invitrogen Pte Ltd).
(§3) Expression of GST-HDAC1 or HTGST-HDAC8 was done by infecting SF9 cells (Invitrogen Pte Ltd) with pDEST20-HDAC1 or pFASTBAC-GST-HDAC8 baculovirus at MOI=1 for 48 h. Soluble cell lysate was incubated with pre-equilibrated Glutathione Sepharose 4B beads (Amersham) at 4° C. for 2 h. The beads were washed with PBS buffer for 3 times. The GST-HDAC1 protein or GST-HDAC8 protein was eluted by elution buffer containing 50 mM Tris, pH8.0, 150 mM NaCl, 1% Triton X-100 and 10 mM or 20 mM reduced Glutathione. The purified GST-HDAC1 protein or purified GST-HDAC8 protein was dialyzed with HDAC storage buffer containing 10 mM Tris, pH7.5, 100 mM NaCl and 3 mM MgCl2. 20% Glycerol was added to purified GST-HDAC1 protein or purified GST-HDAC8 before storage at −80° C.
The assay has been carried out in 96 well format and the BIOMOL fluorescent-based HDAC activity assay has been applied. […] Flur de lys Developer was added and the reaction was incubated for 10 min. Briefly, deacetylation of the substrate sensitizes it to the developer, which then generates a fluorophore. The fluorophore is excited with 360 nm light and the emitted light (460 nm) is detected on a fluorometric plate reader (Tecan Ultra Microplate detection system, Tecan Group Ltd.).
(§4) The analytical software, Prism 3.0® (GraphPad Software Inc) has been used to generate IC50 from a series of data.

[5] = molecular target: T2, HDAC1 enzyme (recombinant GST-HDAC1) (Homo sapiens, UniProt Q13547); experiment: In vitro HDAC assay for determination of IC50 values (BIOMOL fluorescent-based), HDAC1; format: biochemical; conditions: 600 nM HDAC1 enzyme, 500 μM Flur de lys generic substrate, 2 h room temperature
T2 construct: Amplification of human HDAC1 and HDAC8 coding region from this cDNA library; made in house; host or cells: SF9 insect cells (baculovirus, pDEST20 vector)
T2 sequence (Q13547 whole entry): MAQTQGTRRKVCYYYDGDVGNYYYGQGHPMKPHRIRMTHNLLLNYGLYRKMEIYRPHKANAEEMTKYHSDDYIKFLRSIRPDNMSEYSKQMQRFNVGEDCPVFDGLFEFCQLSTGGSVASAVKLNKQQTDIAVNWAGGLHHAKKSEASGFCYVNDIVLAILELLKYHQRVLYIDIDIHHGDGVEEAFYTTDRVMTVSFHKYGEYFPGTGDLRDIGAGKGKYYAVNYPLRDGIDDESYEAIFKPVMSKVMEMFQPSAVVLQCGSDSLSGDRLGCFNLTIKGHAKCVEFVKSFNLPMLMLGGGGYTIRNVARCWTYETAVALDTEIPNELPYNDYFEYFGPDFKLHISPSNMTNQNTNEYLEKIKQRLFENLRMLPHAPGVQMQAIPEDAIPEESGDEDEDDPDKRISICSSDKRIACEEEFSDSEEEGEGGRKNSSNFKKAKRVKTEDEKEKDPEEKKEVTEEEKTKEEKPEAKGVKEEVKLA
Procedure: Human cDNA library was prepared using cultured SW620 cells. Amplification of human HDAC1 and HDAC8 coding region from this cDNA library was cloned separately into the baculovirus expression pDEST20 vector and pFASTBAC vector respectively (GATEWAY Cloning Technology, Invitrogen Pte Ltd). The pDEST20-HDAC1 and pFASTBAC-HTGST-HDAC8 constructs were confirmed by DNA sequencing. Recombinant baculovirus was prepared using the Bac-To-Bac method following the manufacturer's instruction (Invitrogen Pte Ltd). Baculovirus titer was determined by plaque assay to be about 10^8 PFU/ml.
as §3
The assay has been carried out in 96 well format and the BIOMOL fluorescent-based HDAC activity assay has been applied. The reaction composed of assay buffer, containing 25 mM Tris pH 7.5, 137 mM NaCl, 2.7 mM KCl, 1 mM MgCl2, 1 mg/ml BSA, tested compounds, 500 nM HDAC8 enzyme or 600 nM HDAC1 enzyme, 200 μM Flur de lys p53 peptide substrate for HDAC8 enzyme or 500 μM Flur de lys generic substrate for HDAC1 enzyme and subsequently was incubated at room temperature for 2 h. Flur de lys Developer was added and the reaction was incubated for 10 min. Briefly, deacetylation of the substrate sensitizes it to the developer, which then generates a fluorophore. The fluorophore is excited with 360 nm light and the emitted light (460 nm) is detected on a fluorometric plate reader (Tecan Ultra Microplate detection system, Tecan Group Ltd.).
as §4

[6] = tested on: acetylated histone H4 in Colo205 cells; experiment: Histone acetylation assay (western blot), histone H4; format: cell-based, human; design: key: “Active” means accumulation of acetylated histone was observed when compared with control (without compound); conditions: Colo205 cells, 0.1, 1, 5 and 10 μM, 24 h
Procedure: as §2

[7] = tested on: MDA-MB435 human breast cancer cell line; experiment: Cell-based proliferation assay for determination of GI50 values, MDA-MB435; conditions: MDA-MB435 cells, 96 h treatment, cyquant assay
Procedure: as §1

[8] = tested on: acetylated histone H2A in Colo205 cells; experiment: Histone acetylation assay (western blot), histone H2A; format: cell-based, human; design: key: “Active” means accumulation of acetylated histone was observed when compared with control (without compound); conditions: Colo205 cells, 0.1, 1, 5 and 10 μM, 24 h
Procedure: as §2, with “After removing the substrate, the membrane was exposed to an X-ray film (Kodak) for 1 sec-20 mins. The X-ray film was developed using the X-ray film processor.” left out, “The values were then normalized against the density of actin in the corresponding samples to obtain the expression of the protein.” left out

[9] = tested on: acetylated histone H2B in Colo205 cells; experiment: Histone acetylation assay (western blot), histone H2B; format: cell-based, human; design: key: “Active” means accumulation of acetylated histone was observed when compared with control (without compound); conditions: Colo205 cells, 0.1, 1, 5 and 10 μM, 24 h
Procedure: as §2, with “After removing the substrate, the membrane was exposed to an X-ray film (Kodak) for 1 sec-20 mins. The X-ray film was developed using the X-ray film processor.” left out, “The values were then normalized against the density of actin in the corresponding samples to obtain the expression of the protein.” left out

GI50 [3] [nM] | IC50 [4] [nM] | IC50 [5] [nM] | SMILES | MDA-MB231 Gl50 [1] [µM] | Histone 3 acetylation [2] | Histone 4 acetylation [6] | MDA-MB435 Gl50 [7] [µM] | Hisotne 2A acetylation [8] | Histone 2B acetylation [9]
– | 51 | 1130 | Cc1ccc(S(=O)(=O)NC(=O)NCCCCCCCC(=O)NO)cc1 [Example 14] | – | – | – | – | – | –
2670 | 520 | 27 | O=C(CCCCCNC(=S)NC(=O)c1ccccc1)NO [Example 18, 6-(3-Benzoyl-thioureido)-hexanoic acid hydroxyamide] | – | Active | – | – | – | –
– | 140 | > 100000 | Cc1ccc(S(=O)(=O)NC(=O)Nc2ccc(CC(=O)NO)cc2)cc1 [Example 5, N-Hydroxy-2-{4-[3-(toluene-4-sulfonyl)ureido]-phenyl}acetamide] | – | – | – | – | – | –
– | 72 | > 100000 | O=C(Cc1ccc(NC(=O)NC(=O)c2ccccc2)cc1)NO [Example 8, 2-[4-(3-Benzoyl-ureido)-phenyl]-N-hydroxy-acetamide] | – | – | – | – | – | –
2680 | 270 | 150 | O=C(CCCCCCNC(=O)NC(=O)c1ccccc1)NO [Example 13, 7-(3-Benzoyl-ureido)-heptanoic acid hydroxyamide] | – | Active | – | – | – | –
630 | 230 | 48 | O=C(/C=C/c1ccc(CN(CCN2CCCCC2)C(=O)NC(=O)c2ccccc2)cc1)NO [Example 46, 3-{4-[3-Benzoyl-1-(2-piperidin-1-yl-ethyl)-ureidomethyl]-phenyl}-N-hydroxy-acrylamide] | – | Active | – | – | – | –
1890 | 1070 | 56 | O=C(CCCCCNC(=O)NC(=O)c1ccccc1)NO [Example 10, 6-(3-Benzoyl-ureido)-hexanoic acid hydroxyamide] | 1.03 | Active | Active | 1.79 | Active | Active
– | 49 | 2920 | Cc1ccc(S(=O)(=O)NC(=O)NCc2ccc(C(=O)NO)cc2)cc1 [Example 4] | – | – | – | – | – | –

The remaining lines, values behind:

SMILES | GI50 [3] [nM] | IC50 [4] [nM] | IC50 [5] [nM] | MDA-MB231 Gl50 [1] [µM] | Histone 3 acetylation [2] | Histone 4 acetylation [6] | MDA-MB435 Gl50 [7] [µM] | Hisotne 2A acetylation [8] | Histone 2B acetylation [9]
O=C(/C=C/c1ccc(CN(CCc2ccccc2)C(=O)NC(=O)c2ccccc2)cc1)NO [Example 23, 3-[4-(3-Benzoyl-1-phenethyl-ureidomethyl)-phenyl]-N-hydroxy-acrylamide] | 150 | 200 | 12 | 0.26 | Active | – | – | – | –
O=C(NO)c1ccc(CN2CCN(C(=O)NC(=O)c3ccccc3)CC2)cc1 [Example 30, 4-(4-Benzoylaminocarbonyl-piperazin-1-ylmethyl)-N-hydroxy-benzamide] | – | 460 | 2870 | – | – | – | – | – | –
Cc1ccc(S(=O)(=O)NC(=O)NCCCCCC(=O)NO)cc1 [Example 1, 6-[3-(toluene-4-sulfonyl)ureido]-hexanoic acid hydroxyamide] | – | 790 | > 100000 | – | – | – | – | – | –
O=C(Cc1cccc(NC(=O)NC(=O)c2ccccc2)c1)NO [Example 7, 2-[3-(3-Benzoyl-ureido)-phenyl]-N-hydroxy-acetamide] | – | 150 | > 100000 | – | – | – | – | – | –
O=C(CCCCCCCNC(=O)NC(=O)c1ccccc1)NO [Example 12, 8-(3-Benzoyl-ureido)-octanoic acid hydroxyamide] | 8030 | 400 | 98 | – | – | – | – | – | –
O=C(NCc1ccc(C(=O)NO)cc1)NC(=O)c1ccccc1 [Example 6, 4-(3-Benzoyl-ureidomethyl)-N-hydroxy-benzamide] | 1910 | 41 | 130 | 1.92 | Active | Active | 1.24 | – | –
O=C(/C=C/c1ccc(CN(CCc2ccc(Br)cc2)C(=O)NC(=O)c2ccccc2)cc1)NO [Example 25, 3-(4-{3-Benzoyl-1-[2-(4-bromo-phenyl)-ethyl]-ureidomethyl}-phenyl)-N-hydroxy-acrylamide] | 160 | – | – | – | – | – | – | – | –
Cc1ccc(S(=O)(=O)NC(=O)Nc2ccc(/C=C/C(=O)NO)cc2)cc1 [Example 2] | – | 40 | 2610 | – | – | – | – | – | –
O=C(/C=C/c1ccc(CN(CCN2CCCC2)C(=O)NC(=O)c2ccccc2)cc1)NO [Example 47, 3-{4-[3-Benzoyl-1-(2-pyrrolidin-1-yl-ethyl)-ureidomethyl]-phenyl}-N-hydroxy-acrylamide] | – | 250 | 24 | – | – | – | – | – | –
